The values below come from article PMC8382222, “Easy Surface Functionalization and Bioconjugation of Peptides as Capture Agents of a Microfluidic Biosensing Platform for Multiplex Assay in Serum” (Bioconjugate Chemistry, 2021).

Positions of bridges follow the written chain, without caps; N, C: chain ends. Residues, ends and D or L forms follow the SMILES beside them.

The target in one test is T1, CRP protein (Homo sapiens, UniProt P02741).
T1 construct: purchased Sigma-Aldrich
T1 sequence (P02741 19-224): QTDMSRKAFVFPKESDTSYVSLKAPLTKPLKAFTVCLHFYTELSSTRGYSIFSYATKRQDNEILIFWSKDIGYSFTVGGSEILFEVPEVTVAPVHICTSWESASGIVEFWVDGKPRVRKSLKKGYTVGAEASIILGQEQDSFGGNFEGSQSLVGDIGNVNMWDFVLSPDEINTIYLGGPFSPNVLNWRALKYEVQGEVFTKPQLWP
Kind of test: One-step injection SPR (Taylor dispersion), CRP immobilized. Type of test: binding. As to the method:
(§1) SPR experiments were performed by one-step injection with the aim of evaluating and confirming the binding constant between peptide and biomarkers. Analyte concentrations of 30 μM of VEFG-114 peptide and 245 μM of CRP-1 peptide were used. The one-step experiment was based on the Taylor dispersion theory, so a unique concentration of peptide was dispersed into a running buffer directly in the flow cell in order to have a final sigmoidal profile.[41],[42] […] For the G6 peptide, the affinity against the TNFα protein was previously estimated by our research group in a recent study (data not shown).[18]
SPR experiments were performed by one-step injection. VEGF and CRP protein were immobilized at a concentration of 100 μg/mL in a 10 mM acetate buffer pH 4.5 and 3.5, respectively, (flow 10 μL/min, injection time 20 min) on a COOH1 SensiQ sensor chip, using EDC/NHS chemistry (0.4 M EDC/0.1 M NHS, flow 25 μL/min, injection time 4 min), achieving an 800 RU signal. Groups of reactive residues were deactivated by treatment with ethanolamine hydrochloride 1 M, pH 8.5. The reference channel was prepared by activation with EDC/NHS and deactivation with ethanolamine. Analyte concentrations of 30 μM for VEFG-114 peptide and 245 μM for CRP-1 peptide were used with a flow rate of 100 μL min^–1 and a 300 s dissociation time. […]

In a further test the target is T2, VEGF protein (Homo sapiens, UniProt P15692).
T2 construct: purchased Peprotech
T2 sequence (P15692 1-191 isoform P15692-4): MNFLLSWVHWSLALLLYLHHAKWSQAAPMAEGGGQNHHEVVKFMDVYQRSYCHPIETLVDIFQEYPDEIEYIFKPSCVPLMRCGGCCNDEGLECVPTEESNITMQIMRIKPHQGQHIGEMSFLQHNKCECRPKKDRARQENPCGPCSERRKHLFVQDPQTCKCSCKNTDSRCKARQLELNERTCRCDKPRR
Briefly: One-step injection SPR (Taylor dispersion), VEGF immobilized. The test is classed as binding. Here is the method: as §1
Reagents for peptide synthesis (Fmoc-protected amino acids, resins, activation, and deprotection reagents) were purchased from Iris Biotech GmbH (Waldershofer Str. 49–51, 95615); EDC/NHS, PDMS, and CRP (C- Reactive Protein) were from Sigma-Aldrich. VEGF (Recombinant Human VEGF165) was purchased from Peprotech. Anti-CRP (Anti-C Reactive Protein antibody (FITC) (ab19174)) and Anti-VEGF (Anti-Recombinant Human VEGF antibody (FITC)) were from Abcam. TNF-α and Anti-TNF-α (Anti-Tumor Necrosis Factor-α antibody (FITC)) were from Prospec. Solvents for peptide synthesis and HPLC analyses were purchased from Sigma-Aldrich; reversed-phase columns for peptide analysis and the LC–MS system were supplied, respectively, from Agilent Technologies and Waters (Milan, Italy). […]

In general, Kd refers to the concentration at which binding is half-saturated. Low readings indicate a tighter complex, high ones a looser complex. In the case of `CC(C)C[C@H](NC(=O)[C@H](CCC(N)=O)NC(=O)[C@@H]1CSSC[C@H](NC(=O)[C@H](C)NC(=O)[C@H](Cc2c[nH]c3ccccc23)NC(=O)[C@@H](N)CCC(=O)O)C(=O)N[C@@H](CC(N)=O)C(=O)N[C@@H](CC(=O)O)C(=O)N[C@@H](CCCNC(=N)N)C(=O)NCC(=O)N[C@@H](Cc2ccccc2)C(=O)N[C@@H](CC(N)=O)C(=O)N1)C(=O)N[C@@H](CCC(N)=O)C(=O)N[C@@H](CCCNC(=N)N)C(N)=O` [CRP-1] (H-EWACNDRGFNCQLQR-NH2; disulfide 4-11), on CRP protein (245 μM CRP-1 peptide, 1:1 interaction model), the “dissociation value (in words)” value is given as “low micromolar”. Moreover, at CRP protein (CRP immobilized at 100 μg/mL (10 mM acetate pH 3.5) on COOH1 SensiQ chip, 245 μM CRP-1 analyte, 100 μL/min, 300 s dissociation, 1:1 binding model, QDAT, mean ± SD), the dissociation constant Kd turned out to be 12 ± 0.1 µM.
Consider `CC[C@H](C)[C@@H]1NC(=O)[C@H](CC(=O)O)NC(=O)[C@@H](NC(=O)[C@H](CC(N)=O)NC(=O)[C@@H]2CCCN2C(=O)[C@H](CCC(=O)O)NC(=O)[C@@H](N)C(C)C)CSSC[C@@H](C(=O)N[C@@H](Cc2ccccc2)C(=O)N[C@@H](CCC(=O)O)C(=O)N[C@@H](CCCNC(=N)N)C(=O)N[C@@H](CC(C)C)C(N)=O)NC(=O)[C@H](CCC(=O)O)NC(=O)[C@H](Cc2c[nH]c3ccccc23)NC(=O)[C@H](CCC(=O)O)NC(=O)[C@H](Cc2c[nH]c3ccccc23)NC(=O)[C@H](CCSC)NC(=O)[C@H](C(C)C)NC(=O)[C@H](Cc2c[nH]cn2)NC1=O` [VEGF-114] (H-VEPNCDIHVMWEWECFERL-NH2; disulfide 5-15), for which, at VEGF protein (30 μM peptide, 1:1 interaction model), the “dissociation value (in words)” value is “low micromolar”. Moreover, binding on VEGF protein (VEGF immobilized at 100 μg/mL (10 mM acetate pH 4.5) on COOH1 SensiQ chip, 30 μM VEGF-114 analyte, 100 μL/min, 300 s dissociation, 1:1 binding model, QDAT, mean ± SD) was put at a Kd of 10 ± 0.7 µM.
